According to publication PMC10987829 (iScience, 2024):
Each block holds one molecule with its values, some of them ahead of it.

Columns and labels:
H2A/H2B dimers = H2A/H2B dimers (Xenopus laevis, UniProt P02281+P06897); experiment: Protein thermal shift; assay type: binding; details: H2A/H2B 0.5 mg/mL, ligand 1.2:1 molar ratio, 50 mM Bis-Tris propane pH 7.4, 150 mM NaCl, 10X SYPRO Orange; apo H2A/H2B Tm 46.1 ± 0.2°C; three replicates
H3/H4 = details: cited from earlier work
[1] = molecular target: Npm2 A2mockglu4 peptide (…), 'pseudo-glutamylated' (Xenopus laevis); experiment: other fluorescence titration
mononucleosomes = experiment: Disassembly of premade mononucleosomes; assay type: biochemical; details: salt-dialysis mononucleosomes, increasing chaperone

change of H2A/H2B melting temperature (Tm) (H2A/H2B dimers): 6.7 °C
Molecule: DYDEEGEEADDEEGEEEADEDHDPDFDPK [Nap1 A3 (350–382)]

Kd [1]: 300 nM
Molecule: Xenopus laevis H2A/H2B heterodimer (from UniProt P06897;P02281) (complex)

Second part, the molecule before the results:

Molecule: Npm2 Tail (119–146): Npm2 C-terminal Tail domain peptide, residues 119–146, purified as previously described (AMEEDYSWAEEEDEGEEEEEEEEDPESP)
fold lower affinity for H3/H4 than for H2A/H2B (H3/H4): 5 fold

B1: Nap1glu: TTLL4-treated (glutamylated) full-length Nap1 (protein)
chain: MANIDNKGQTELDQQDMEDVEDVEEEETGEDANSKARQLTAQMMQNPQVLAALQERLDDLVGTPTGYIESLPKVVKRRVNALKNLQVKCAQIEAKFYEEVHELERKYAALYQPLFDKRSDIINATYEPTEEECEWKVEEEDISGDLKEKAKLEEEKKDEEKEDPKGIPEFWLTVFKNVDLLSDMLQEHDEPILKHLKDIKVKFSDAGQPMSFTLEFYFEPNEFFTNEVLTKTYKMRSEPDESDPFSFDGPEIMGCTGCLIDWKKGKNVTLKTIKKKQKHKGRGTVRTVTKTVPNDSFFNFFTPPEVPENGELDDDAEAILTADFEIGHFLRERIIPRSVLYFTGEAIEDDDDDYDEEGEEADDEEGEEEADEDNDPDYEPKV
disassembly of premade mononucleosomes (mononucleosomes): neither Nap1 nor Nap1glu were able to disassemble premade mononucleosomes
